Measured values published in publication PMC10835127, “Viruses traverse the human proteome through peptide interfaces that can be biomimetically leveraged for drug discovery” (Proceedings of the National Academy of Sciences of the …, 2024).
pIC50: −log10 of the molar value. Values after ≈ are worked out from the molar mass of the structure shown. Where two headings read alike, the source gives them in different places. No end group written: not given here.

What was measured:
influenza A H1N1 virus [1] = assay: microbe, parasite or virus in culture
[2] = Cryopreserved hepatocyte stability, human; type: in vitro ADME; conditions: cryopreserved hepatocytes, read-out: CLint hHep
Procedure: (§1) Cryopreserved hepatocyte stability
(§2) Tested compounds (1 μM) were incubated with human cryopreserved hepatocytes (pool of 5) (IVT Celsis) and mouse cryopreserved hepatocytes (IVT Celsis). Hepatocytes (1, 0.5 or 0.25 x10^6 cells/mL, Williams’ Medium E (WME) with 4 mM L-glutamine and 2 mM magnesium sulphate) containing tested compound (final substrate concentration 1 μM; final DMSO concentration 0.25 %) were preincubated at 37 °C. The final incubation volume was 500 μl. 3 species-specific control compounds were included with each species. At 7 time points (0, 10, 20, 40, 60, 90, and 120 min), reactions were stopped by transferring 50 μl of the incubation mixture into 0.5 μM carbamazepine in cold acetonitrile. Tested compound concentrations were analyzed by LC-MS/MS and the resulting data were used to determine the half-life and intrinsic clearance of the compound in each species. […]

[3] = Microsomal stability, mouse liver microsomes; type: in vitro ADME; conditions: male, CD-1, mouse, pH 7.4; murine liver microsomes; read-out: CLint mLM
Procedure: (§3) Tested compounds (1 μM) were incubated with pooled human liver microsomes (Xenotech; pooled male and female) and pooled mouse liver microsomes (Xenotech; male CD-1 mice).
(§4) Microsomes (final protein concentrations of 0.25 and 0.5 mg/ml, 0.1 M phosphate buffer pH 7.4) containing tested compound (final substrate concentration 1 μM; final DMSO concentration 0.25 %) were preincubated at 37 °C prior to the addition of NADPH (final concentration 1 mM) to initiate the reaction. The final incubation volume was 200 μl. 3 species-specific control compounds were included with each species. At 5 time points (0, 5, 10, 20, and 40 min), reactions were stopped by transferring 50 μl of the incubation mixture into 0.5 μM carbamazepine in acetonitrile. Tested compound concentrations were analyzed by LC-MS/MS and the resulting data were used to determine the half-life and intrinsic clearance of the compound in each

[4] = Cryopreserved hepatocyte stability, mouse; type: in vitro ADME; conditions: cryopreserved hepatocytes, murine hepatocytes, read-out: CLint mHep
Procedure: as §1, §2

[5] = Plasma protein binding by equilibrium dialysis, murine; type: in vitro ADME; conditions: mouse, read-out: PPB (% bound)
Procedure: The free and bound fractions of the tested compounds in mouse and human plasma were determined by equilibrium dialysis using a 96-well Teflon dialysis unit (HTDialysis plate complete unit, HT Dialysis, USA). The HTDialysis plate complete unit consists of a 96-well plate with wells vertically bisected by a semipermeable membrane (membranes strips 12 to 14 kDa) creating two chambers. A 125 μL aliquot of plasma containing tested compound at 10 μM was placed on one side and 125 μL of Dulbecco‘s phosphate buffered saline (D-PBS) on the other. The plate was incubated at 37 °C for 6 hr under gentle agitation. Then, samples from both plasma and buffer compartment were analyzed by a LC-MS/MS method to measure the free fraction and the bound fraction to the plasma proteins. […]

Kinetic solubility = type: physicochemical; conditions: PBS pH 7.4 buffer, pH 7.4, aqueous buffer, kinetic from dmso stock
Procedure: 10 mM DMSO Stock solutions of tested compounds were distributed into filtration plate (Multiscreen Durapore 0.45µm) containing PBS pH 7.4 buffer to a final maximum concentration of 130 μM (1.3 % DMSO/buffer). Solutions or suspensions were shaken for 30 min at room temperature. The samples were filtered under vacuum into a collection plate and diluted 50 % with ACN for UV analysis. Quantification was performed against a Reference plate containing the same tested compounds fully solubilized in ACN/PBS buffer 1:1. Reference and Sample plates were analyzed by UPLC/UV-MS using a generic UPLC method. […]

PK parameters in mice = type: in vivo, male Swiss (CD-1) mice; conditions: male, Swiss (CD-1), plasma, mouse
Procedure: PK parameters and tissue distribution in mice
The pharmacokinetic profiles of the tested compounds were evaluated in male Swiss (CD-1) mice around 5-6 weeks old (3 animals per sampling time). […]
0.2 % Tween 80 in water. Blood samples were collected (0.25 mL) from the sinus retro-orbital […]
24 hr for p.o. route. The blood samples were immediately centrifuged at 2500 rpm at +4 °C, and the plasma was stored at −80 °C. 50 μL of plasma sample was taken and 150 μL of acetonitrile was added. After protein precipitation, analysis of the molecule was performed using LC-MS/MS to determine plasma compound concentration. For liver and lung collection, 3 animals per group were involved and sampled after 2 hr and 24 hr upon 20 mg/kg p.o. administration. Animals were perfused with around 10 mL of saline solution directly into the heart to extract the maximal blood sample from the liver and the lung. Animals were then sacrificed by cervical dislocation and liver

[6] = Microsomal stability, human liver microsomes; type: in vitro ADME; conditions: both sexes, pH 7.4, read-out: CLint hLM
Procedure: as §3, §4

Dengue virus = conditions: in vitro; cited from earlier work
HIV1 strain NL4-3 = type: cell-based; conditions: normalized mean of HIV1 replication readout
EBV = conditions: normalized mean of EBV replication readout
HCV replicon = type: cell-based; conditions: normalized mean of HCV replicon readout
influenza A H1N1 virus [7] = conditions: 48 hr post-treatment, A549
NAF-1 = target: T1, NAF-1 (Homo sapiens, UniProt Q8N5K1); assay: In vitro NEET [2Fe-2S] cluster release, NAF-1; type: biochemical; conditions: recombinant NAF-1, 37 °C, absorbance 460 nm
T1 construct: MitoNEET ([60]) and NAF-1 ([61]) cytosolic domains and MiNT ([62]) were purified from E. coli as previously published; made in house; host or cells: E. coli
T1 sequence (Q8N5K1 61-135 limits assumed): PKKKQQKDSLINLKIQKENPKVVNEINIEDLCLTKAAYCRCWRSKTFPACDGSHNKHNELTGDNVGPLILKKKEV
Procedure: (§5) MitoNEET ([60]) and NAF-1 ([61]) cytosolic domains and MiNT ([62]) were purified from E. coli as previously published. Experiments were performed in 96-well plates at 37 °C with […] of Fe-S cluster in a buffer composed of 50 mM Tris-HCl pH 7 and 100 mM NaCl. dEF3122 was dissolved in dimethyl sulfoxide (DMSO) at 10 mM. CPEP31 was dissolved in PBS at 10 mM. After 20 min of incubation of the protein with the molecule, NEET cluster release was followed by measuring the absorbance at 460 and 800 nm over time using a plate reader (SpectraMax ID3). The absorbance at 460 nm was corrected for the variation of the baseline (absorbance at 800 nm) over time and normalized at 1 at the beginning of the kinetics.

MiNT = target: T2, MiNT (Homo sapiens, UniProt P0C7P0); assay: In vitro NEET [2Fe-2S] cluster release, MiNT; type: biochemical; conditions: recombinant MiNT, 37 °C, absorbance 460 nm
T2 construct: made in house; host or cells: E. coli
T2 sequence (P0C7P0 15-127): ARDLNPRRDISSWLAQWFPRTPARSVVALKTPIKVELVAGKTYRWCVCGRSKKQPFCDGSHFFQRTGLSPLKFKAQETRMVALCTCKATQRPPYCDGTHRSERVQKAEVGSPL
Procedure: as §5

MitoNEET = target: T3, MitoNEET (Homo sapiens, UniProt Q9NZ45); assay: In vitro NEET [2Fe-2S] cluster release, MitoNEET; type: biochemical; conditions: recombinant MitoNEET, 37 °C, absorbance 460 nm
T3 construct: MitoNEET ([60]) and NAF-1 ([61]) cytosolic domains and MiNT ([62]) were purified from E. coli as previously published; made in house; host or cells: E. coli
T3 sequence (Q9NZ45 32-108 limits assumed): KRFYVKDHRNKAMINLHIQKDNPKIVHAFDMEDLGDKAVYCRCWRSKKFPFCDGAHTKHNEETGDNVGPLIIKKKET
Procedure: as §5

[8] = not given; remark: listed apart in the source
[9] = test system: F. novicida (strain U112); type: cell-based; conditions: normalized area under the curve
[10] = H1N1, A549, read-out: Neuraminidase activity assay IC50

Work on `O=C(Nc1scc(C2CCc3ccccc3C2)c1C(=O)O)c1ccccc1` (racemic) [dEF2905] yielded a pIC50 (influenza A H1N1 virus [1]; [10]) of 7.74, a hepatocyte CLint at 1 µM [2] of 65 µL/min/1e6 cells and a microsomal CLint at 1 µM [3] of 29 µL/min/mg. For the same compound, the hepatocyte CLint at 1 µM [4] was under 5 µL/min/1e6 cells, the fraction unbound at 6 h, 10 µM [5] was 0.001 and the solubility kinetic at 30 min (Kinetic solubility) was 48 µM (≈ 18.1 µg/mL). For the same compound, the half-life (PK parameters in mice; iv 0.25 mg/kg, read-out: T1/2 iv (converted)) was 228 min, the Cmax (PK parameters in mice; po 2 mg/kg (dose for AUC)) was 1140 ng/mL and the bioavailability (PK parameters in mice; po 2 mg/kg, iv 0.25 mg/kg) was 33%.
Work on `O=C(Nc1ccc(Cl)cc1)c1c(NC(=O)C2CCCCC2C(=O)O)sc2c1CCC2` (centres unmarked) [dEF384] yielded a pIC50 (influenza A H1N1 virus [1]; H1N1, A549, read-out: IC50 for the inhibition of influenza virus replication) of 5.30, a microsomal CLint at 1 µM [3] of under 20 µL/min/mg and a microsomal CLint at 1 µM [6] of under 14 µL/min/mg. For the same compound, the fraction unbound at 6 h, 10 µM [5] was under 0.01, the solubility kinetic at 30 min (Kinetic solubility) was 74 µM (≈ 33.1 µg/mL) and the half-life (PK parameters in mice; iv 0.9 mg/kg, read-out: T1/2 iv (converted)) was 64.8 min. The Cmax (PK parameters in mice; po 10 mg/kg) was 31300 ng/mL, the bioavailability (PK parameters in mice; po 10 mg/kg, iv 0.9 mg/kg) was 71% and the half-life (PK parameters in mice; po 10 mg/kg, read-out: T1/2 po (converted)) was 104 min.
Work on `COc1ccc(C(=O)Nc2sc3c(c2C(=O)O)CCC(C)(C)C3)cc1OC` [dEF2788] yielded a pIC50 (influenza A H1N1 virus [1]; [10]) of 7.30, a hepatocyte CLint at 1 µM [2] of 31 µL/min/1e6 cells and a microsomal CLint at 1 µM [3] of 14 µL/min/mg. For the same compound, the hepatocyte CLint at 1 µM [4] was 116 µL/min/1e6 cells, the microsomal CLint at 1 µM [6] was under 14 µL/min/mg and the fraction unbound at 6 h, 10 µM [5] was under 0.01. The solubility kinetic at 30 min (Kinetic solubility) was 104 µM (≈ 40.5 µg/mL), the half-life (PK parameters in mice; iv 0.5 mg/kg, read-out: T1/2 iv (converted)) was 48 min and the Cmax (PK parameters in mice; po 5 mg/kg (dose for AUC)) was 71 ng/mL. The bioavailability (PK parameters in mice; po 5 mg/kg, iv 0.5 mg/kg) was 26% and the “activity against Dengue virus replication” value (Dengue virus) was “active in vitro against Dengue virus replication”.
In the case of EVVLFLLNVF [CPEP31], the “HIV1 Norm MEAN” value (HIV1 strain NL4-3) was 8.9, the “EBV Norm MEAN” value (EBV) was 0.8028 and the CC50 was over 100 µM. For the same compound, the “HCV Norm MEAN” value (HCV replicon) was 0.4448, the “Neuraminidase activity normalized to vehicle” value (influenza A H1N1 virus [7]; 200 µM peptide) was 0,0494 and the “Neuraminidase activity normalized to vehicle” value (influenza A H1N1 virus [7]; 0,823 µM peptide) was 0,7352. For the same compound, the “Neuraminidase activity normalized to vehicle” value (influenza A H1N1 virus [7]; 22,2 µM peptide) was 0,2851, the “Neuraminidase activity normalized to vehicle” value (influenza A H1N1 virus [7]; 2,4691 µM peptide) was 0,951 and the “Neuraminidase activity normalized to vehicle” value (influenza A H1N1 virus [7]; 7,4074 µM peptide) was 0,7335. The “Neuraminidase activity normalized to vehicle” value (influenza A H1N1 virus [7]; 66,6667 µM peptide) was 0,114, the “interaction by [2Fe-2S] cluster release assay” value (from here on “interaction”) (NAF-1) was “Interactions were validated” and the “interaction” value (MiNT) was “Interactions were validated”. The “interaction” value (MitoNEET) was “Interactions were validated”, the selectivity ratio [8] was over 12 and the “Francisella novicida Norm AUC” value [9] was 0.6912.
